Experimental data as given in patent US20190352288A1, “MATRIX METALLOPROTEINASE (MMP) INHIBITORS AND METHODS OF USE THEREOF” (Foresee Pharmaceuticals Co., Ltd., priority 2018, published 2019).
“Also recorded” adds a separate entry of the source.

Key:
[1] = biological target: recombinant human MMP-13 (Homo sapiens, UniProt P45452); experiment: MMP selectivity assay, MMP-13; type: biochemical; settings: Table 2 selectivity profile
Description: (§1) The inhibitory effect of compounds on the rate of cleaving fluorogenic MMP substrate (Enzo, BML-P128) by recombinant human MMP-12 catalytic domain (Enzo, BML-SE138) was carried out by methods known in the art. Briefly, to each well of a 96-well black opaque plate, all the reagents were sequentially added by pipetting, and the final reaction contained 4 nM of recombinant human MMP-12 catalytic domain, 4 μM of fluorogenic MMP substrate, and various concentrations (0.15 nM to 10,000 nM) of tested compound dilutions in HEPES buffer (pH 7.5) containing 10 mM of CaCl2), 0.01% Brij® 35 (polyoxyethylene (23) lauryl ether), and 0.1 mg/ml of BSA.
(§2) The enzyme and compounds were pre-incubated on a shaker to mix in wells. After an hour of mixing, fluorogenic substrate was added to each well. Reaction without enzyme was used as a blank control in the plate. The plate was then fed into a plate reader to measure fluorescence intensity at Excitation/Emission wavelengths of 340 nm/440 nm every 10 mins for at least 1 hour at 37° C. The IC50 of each compound in MMP-12 inhibition was determined by using a readout obtained at time point 30 minutes.
(§3) The MMP selectivity assay was performed by using other recombinant human MMPs, including MMP-1, MMP-2, MMP-3, MMP-7, MMP-8, MMP-9, MMP-10, MMP-13, and MMP-14. The IC50 of the compounds for the other recombinant human MMPs was determined as described above in Example 1, and are shown in Table 2.

[2] = system: SD rat kidney fibrosis model by unilateral ureteral occlusion (UUO); experiment: Efficacy study on SD rat kidney fibrosis model by unilateral ureteral occlusion (UUO); type: in vivo, Sprague Dawley (SD) rats
Description: This study was to evaluate the therapeutic efficacy of MMP-12 inhibitor, PC-16 on a renal fibrosis model by unilateral ureteral occlusion (UUO). Male Sprague Dawley (SD) rats (180-220 g, n=71) were used in this study. Animals were randomly divided into 4 groups: vehicle group (group-1, n=8), PC-16 2 mg/kg/day group (group-2, n=9), PC-16 6 mg/kg/day group (group-3, n=10), PC-16 20 mg/kg/day group (group-4, n=9). Animals were anesthetized with 2.5% isoflurane inhelation. The left ureter was ligated to create a unilateral ureteral occlusion (UUO) model to induce renal fibrosis. The test article, PC-16 was administrated twice a day via oral delivery after modeling for 14 days. Peripheral blood serum was prepared at pre-modeling and day-15 (one day after last dosing). All animals were euthanized and processed for left kidney pathology studies.
Animals: Gender: Male, SD rats, 180-220 g, total 71. Certificate: 11400700272659, Beijing Vital River Laboratory Animal Technology Co., Ltd., China. Animal holding: Animals were maintained in a temperature-controlled environment with a 12 hours light/12 hours dark cycle and free access to food and water. Experimental procedures were performed according to IACUC guidelines in the KCI (SuZhou) Biotech Inc. (KCI) animal research facility. Model creation: Total […] male SD rats were used in this study. After anesthesia with 2.5% isoflurane inhalation the animal abdomen was opened surgically. The left ureter was exposed and ligated close to the bladder to create the UUO model. After confirming no bleeding, the abdomen wall was closed in layers. The animals were maintained under temperature controlled pad (37° C.) for the recovery from anesthesia, and then were transferred to holding cages with regular food and water.
Experiment grouping: UUO modeling animals were divided into 7 groups randomizedly as vehicle (group-1, n=8), PC-16 2 mg/kg/day (group-5, n=9), PC-16 6 mg/kg/day (group-6, n=10), PC-16 20 mg/kg/day (group-7, n=9) (Table 4.1). Dosing regimen: All test articles were designed as an oral administration via a gastric perfusion. Test articles were designed to be delivered twice a day starting on the same day of modeling for 14 days (Table 4.1). Endpoints: 1) Blood collection: Peripheral blood was collected from all animals in each group and prepared for serum at pre-modeling and day-15 (one day after last dosing), stored at −80° C. All animals were euthanized according to KCI SOP. After confirming animal death without breath and heart bite the left kidneys were perfused with cold PBS followed by 10% neutral formalin and collected for further pathology study. 2) Detection of serum BUN and creatinine: The serum BUN and creatinine level were detected with Hitachi 7060 automatic biochemical analyzer and related test kits. 3) Kidney pathology examination: 3a) Kidney H&E staining and analysis: Following KCI's pathologic SOP all left kidneys were fixed in 10% formalin for at least 24 h at room temperature. After fixation, the kidney was cut longitudinally to get the largest surface and dehydrated in graded ethanol, cleared in xylene, and embedded in paraffin. Thin sections (3-μm) were mounted on glass slides, dewaxed, rehydrated to distilled water, and stained with hematoxylin and eosin (H&E). All stained slides were scanned with NanoZoomer Digital Pathology (S210, Hamamaci, Japan) scanner. Semi quantitative evaluation of the degree of tubular epithelial flattening and dilatation were graded from 0-5 according to the percentage of tubular involvement: score 0=no damage; score 1=1-10% damage; score 2=10-25% damage; score 3=25-50% damage; score 4=50-75% damage; score 5=75-100% damage. Semi quantitative evaluation of the tubular necrosis is graded from 0 to 3 according to the percentage of tubular involvement: score 0=no necrosis; score 1=<25% necrosis; score 2=25-50% necrosis; score 3=>50% necrosis. The average of tubular flattening and dilatation and necrosis as the total tubular damage was presented. […]

[3] = biological target: T1, recombinant human MMP-2 (Homo sapiens, UniProt P08253); experiment: MMP selectivity assay, MMP-2; type: biochemical; settings: Table 2 selectivity profile
T1 sequence (P08253 110-660): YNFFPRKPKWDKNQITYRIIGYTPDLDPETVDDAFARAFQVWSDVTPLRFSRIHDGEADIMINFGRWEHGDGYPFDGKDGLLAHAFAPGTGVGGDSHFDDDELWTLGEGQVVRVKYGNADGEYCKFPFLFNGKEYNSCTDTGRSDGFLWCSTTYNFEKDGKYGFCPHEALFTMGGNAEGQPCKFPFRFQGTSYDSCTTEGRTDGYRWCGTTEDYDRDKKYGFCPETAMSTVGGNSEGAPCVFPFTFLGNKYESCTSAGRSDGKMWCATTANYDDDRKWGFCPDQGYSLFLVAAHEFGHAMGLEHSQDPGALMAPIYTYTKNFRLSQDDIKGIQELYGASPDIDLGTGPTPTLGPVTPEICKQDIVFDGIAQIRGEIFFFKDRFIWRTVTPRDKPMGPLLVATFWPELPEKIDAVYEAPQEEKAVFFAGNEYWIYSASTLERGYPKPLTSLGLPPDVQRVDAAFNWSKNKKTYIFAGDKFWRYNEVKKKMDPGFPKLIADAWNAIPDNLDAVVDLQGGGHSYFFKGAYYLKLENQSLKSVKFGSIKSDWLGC
Description: as §1, §2, §3

[4] = UUO rats, 20 mg/kg/day (p<0.05)

IC50 [1]: 1000 to 10000 nM
IC50 [3]: 100 to 1000 nM
Compound: Cc1cc(COc2ccc(Sc3ccncc3C3NC(=O)NC3=O)cc2)ccn1 (stereo not shown) [PC-16]
collagen-IV deposition in cortex area of left kidney (IHC) ([2]; UUO rats, 6 mg/kg/day (P<0.05)): significant reduction in collagen-IV deposition
interstitial fibrosis score in cortex ([2]; UUO rats, 20 mg/kg/day (p<0.001)): significant reduction in the fibrosis score
collagen-I deposition in cortex area of left kidney (IHC) [2, 4]: significant reduction in collagen-I deposition
collagen-IV deposition in cortex area of left kidney (IHC) [2, 4]: significant reduction in collagen-IV deposition
serum blood urea nitrogen (BUN) elevation vs vehicle/model group ([2]; UUO rats, 20 mg/kg/day oral bid 14 days, day-15, 20 mg/kg/day): slightly limit the blood urea nitrogen (BUN) elevation; also recorded: did not show a statistically significant difference
left kidney tubular damage (renal tubular damage score) ([2]; UUO rats, 2, 6, 20 mg/kg/day oral bid 14 days, 20 more effective than 2 mg/kg/day (p<0.01)): clear dose dependent effect
interstitial inflammation in cortex (semi quantitative score) ([2]; UUO rats, 2, 6, 20 mg/kg/day oral bid 14 days, dose dependent): significant reduction
interstitial fibrosis score in cortex ([2]; UUO rats, all dose groups (2, 6, 20 mg/kg/day), dose dependent): significant reduction in the fibrosis score
